System: tqq cluster of S. suis
Assay: High-throughput elicitor screening
Type: cell-based, Streptococcus suis
Conditions: for elicitation of threoglucin E: 2D slice from the 3D map, abundance of threoglucin E across all 442 elicitors, Figure 2B; for elicited features in HiTES 3D difference map: ~442-member human endogenous metabolite library, UPLC-Qtof-MS, Figure 2A

Q: How did the “elicitation of threoglucin E” value turn out when `c1cncc([C@@H]2CCCCN2)c1` [anabasine] was run?
A: best elicitors

Q: What about the “elicited features in HiTES 3D difference map” value of the same compound?
A: elicited peaks

Q: Which results are given for `O=C(O)c1cccnc1` [niacin]?
A: elicitation of threoglucin E: best elicitors; elicited features in HiTES 3D difference map: elicited peaks

Q: Which “elicited features in HiTES 3D difference map” value does the source give for `NC(=O)c1cccnc1` [nicotinamide] here?
A: elicited peaks
